Laboratory results reported in ChEMBL document CHEMBL5338816, “Discovery of Dimethyl Shikonin Oxime 5a, a Potent, Selective Bombesin Receptor Subtype-3 Agonist for the Treatment of Type 2 Diabetes Mellitus” (J Med Chem, 2023).
One block for each molecule: values may come before it. The source made the active and inactive calls. No cut-off for these calls is given here.

Experiments:
[1] = target: T1, Bombesin receptor subtype-3 (Homo sapiens, UniProt P32247); test: Agonist activity at human BB3 stably overexpressed in human NCI-H1299 cells assessed as increase in IP-1 accumulation incubated for 60 mins by HTRF assay; assay type: functional, cell-based
T1 sequence (P32247 whole entry): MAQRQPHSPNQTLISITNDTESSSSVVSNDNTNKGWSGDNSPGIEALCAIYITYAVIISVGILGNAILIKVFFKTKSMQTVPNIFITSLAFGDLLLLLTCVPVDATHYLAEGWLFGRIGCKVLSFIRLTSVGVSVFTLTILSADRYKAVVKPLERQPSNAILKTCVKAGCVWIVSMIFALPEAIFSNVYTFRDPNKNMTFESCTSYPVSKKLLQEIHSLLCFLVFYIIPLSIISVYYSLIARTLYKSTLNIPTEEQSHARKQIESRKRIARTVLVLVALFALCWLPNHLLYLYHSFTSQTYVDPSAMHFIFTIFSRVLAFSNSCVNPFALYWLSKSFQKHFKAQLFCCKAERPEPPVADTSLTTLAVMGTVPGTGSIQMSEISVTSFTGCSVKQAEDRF

[2] = Agonist activity at human BB3 in human HEK293T cells assessed as increase in intracellular calcium response and measured for 3 mins by FLIPR calcium 6 assay; assay type: cell-based; conditions: HEK-293T, 0.05 h
[3] = target: T2, Neuromedin-B receptor (Homo sapiens, UniProt P28336); test: Agonist activity at human BB1 in human HEK293T cells assessed as increase in intracellular calcium response and measured for 3 mins by FLIPR calcium 6 assay; assay type: functional, cell-based
Target sequence in this assay (P28336 whole entry): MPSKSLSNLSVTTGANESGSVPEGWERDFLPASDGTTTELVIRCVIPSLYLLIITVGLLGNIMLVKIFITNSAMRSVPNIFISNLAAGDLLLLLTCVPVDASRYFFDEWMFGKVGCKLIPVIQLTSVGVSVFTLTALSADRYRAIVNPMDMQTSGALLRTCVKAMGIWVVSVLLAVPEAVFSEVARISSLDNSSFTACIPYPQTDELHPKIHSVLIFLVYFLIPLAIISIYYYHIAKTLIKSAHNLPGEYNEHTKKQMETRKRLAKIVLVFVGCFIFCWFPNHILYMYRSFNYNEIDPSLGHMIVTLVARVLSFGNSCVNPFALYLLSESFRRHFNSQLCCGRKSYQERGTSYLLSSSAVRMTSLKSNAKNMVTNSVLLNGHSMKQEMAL

[4] = target: T3, Bombesin receptor subtype-3 (Mus musculus, UniProt O54798); test: Agonist activity at mouse BB3 stably overexpressed in human HEK cells assessed as increase in IP-1 accumulation incubated for 60 mins by HTRF assay; assay type: functional, cell-based
T3 sequence (O54798 whole entry): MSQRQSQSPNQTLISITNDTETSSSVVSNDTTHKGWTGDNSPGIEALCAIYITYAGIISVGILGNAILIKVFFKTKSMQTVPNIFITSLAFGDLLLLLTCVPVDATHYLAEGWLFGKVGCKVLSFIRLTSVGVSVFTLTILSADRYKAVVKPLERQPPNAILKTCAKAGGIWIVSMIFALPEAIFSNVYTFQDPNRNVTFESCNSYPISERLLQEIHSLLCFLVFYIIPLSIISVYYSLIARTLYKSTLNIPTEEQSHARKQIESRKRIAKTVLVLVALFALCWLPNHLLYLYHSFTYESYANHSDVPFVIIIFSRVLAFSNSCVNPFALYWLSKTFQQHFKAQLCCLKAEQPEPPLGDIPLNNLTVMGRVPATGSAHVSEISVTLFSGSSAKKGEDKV

[5] = target: T1, Bombesin receptor subtype-3; test: Agonist activity at human BB3 stably overexpressed in human NCI-H1299 cells assessed as increase in intracellular calcium response and measured for 3 mins by FLIPR calcium 6 assay; assay type: functional, cell-based
[6] = target: T3, Bombesin receptor subtype-3; test: Agonist activity at mouse BB3 stably overexpressed in human HEK cells assessed as increase in intracellular calcium response and measured for 3 mins by FLIPR calcium 6 assay; assay type: functional, cell-based
[7] = system: Mus musculus; test: Antidiabetic activity in five hrs fasted BB3 knockout C57BL/6 mouse assessed as reduction in blood glucose level at 30 mg/kg,po pretreated with compound for 30 mins and followed by […] and measured upto 120 mins by OGTT; assay type: functional, organism-based; conditions: time 150.0 min
[8] = target: T4, Bombesin receptor subtype-3 (Rattus norvegicus, UniProt Q8K418); test: Agonist activity at rat BB3 transiently expressed in human HEK293T cells assessed as increase in IP-1 accumulation incubated for 60 mins by HTRF assay; assay type: functional, cell-based
T4 sequence (Q8K418 whole entry): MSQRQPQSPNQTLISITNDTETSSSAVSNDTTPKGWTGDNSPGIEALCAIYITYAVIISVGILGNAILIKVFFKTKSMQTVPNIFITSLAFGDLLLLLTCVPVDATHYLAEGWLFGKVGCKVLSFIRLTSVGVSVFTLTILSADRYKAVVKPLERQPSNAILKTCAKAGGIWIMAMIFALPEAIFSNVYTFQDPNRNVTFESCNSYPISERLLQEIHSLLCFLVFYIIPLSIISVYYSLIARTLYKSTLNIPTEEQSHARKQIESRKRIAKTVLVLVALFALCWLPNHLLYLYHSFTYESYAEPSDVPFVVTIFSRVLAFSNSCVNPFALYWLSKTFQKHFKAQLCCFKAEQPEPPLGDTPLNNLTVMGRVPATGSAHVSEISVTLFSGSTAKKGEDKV

[9] = target: T1, Bombesin receptor subtype-3; test: Agonist activity at human BB3 transiently expressed in human HEK293T cells assessed as increase in IP-1 accumulation incubated for 60 mins by HTRF assay
[10] = system: Mus musculus; test: Antidiabetic activity in fourteen hour fasted type 2 diabetic db/db mouse assessed as increase in PPRE expression in white adipose tissue at 10 mg/kg, po for 4 weeks by Western blot analysis; assay type: functional, organism-based
[11] = Dissociation constant, pKa of the compound; assay type: physicochemical
[12] = system: HEK293T; test: Agonist activity at human BB3 in human HEK293T cells assessed as increase in intracellular calcium response at 10 uM and measured for 3 mins by FLIPR calcium 6 assay; assay type: cell-based
[13] = system: Mus musculus; test: Antidiabetic activity in fourteen hour fasted type 2 diabetic db/db mouse assessed as decrease in gamma-GT level at 10 mg/kg,po for 4 weeks by BS-360S analyzer; assay type: functional, organism-based
[14] = system: Mus musculus; test: Antidiabetic activity in fourteen hour fasted type 2 diabetic db/db mouse assessed as decrease in ALT level at 10 mg/kg,po for 4 weeks by BS-360S analyzer; assay type: functional, organism-based
[15] = Drug concentration in […] mouse cerebrospinal fluid at 50 mg/kg,po and measured upto 480 mins by LC-MS/MS analysis; assay type: ADME, organism-based; conditions: read-out: Ct
[16] = system: Mus musculus; test: Antidiabetic activity in fourteen hour fasted type 2 diabetic db/db mouse assessed as decrease in HOMA-IR level at 10 mg/kg,po for 4 weeks; assay type: functional, organism-based
[17] = system: Mus musculus; test: Antidiabetic activity in fourteen hour fasted type 2 diabetic db/db mouse assessed as decrease in glycosylated serum protein at 10 mg/kg,po for 4 weeks; assay type: functional, organism-based
[18] = target: T3, Bombesin receptor subtype-3; test: Agonist activity at endogenous mouse BB3 in mouse B16 cells assessed as increase in IP-1 accumulation incubated for 60 mins by HTRF assay; assay type: functional, cell-based
[19] = system: Mus musculus; test: Antidiabetic activity in fourteen hour fasted type 2 diabetic db/db mouse assessed as reduction of blood glucose excursion at 10 mg/kg,po for 2 weeks followed by […] and measured upto 120 mins by OGTT; assay type: functional, organism-based
[20] = target: T2, Neuromedin-B receptor; test: Agonist activity at human BB1 in human HEK293T cells assessed as increase in intracellular calcium response at 10 uM and measured for 3 mins by FLIPR calcium 6 assay; assay type: functional, cell-based
Target sequence in this assay (P28336 whole entry, looked up): as the sequence (P28336 whole entry) above

[21] = system: Mus musculus; test: Antidiabetic activity in five hrs fasted wild type C57BL/6 mouse assessed as reduction in blood glucose level at 3 to 30 mg/kg,po pretreated with compound for 30 mins and followed by […] and measured upto 120 mins by OGTT; assay type: functional, organism-based; conditions: dose upper 30.0 mg/kg, time 150.0 min
[22] = system: Mus musculus; test: Antidiabetic activity in fourteen hour fasted type 2 diabetic db/db mouse assessed as decrease in fasting blood glucose level at 10 mg/kg,po for 4 weeks by Glucose analyzer; assay type: functional, organism-based

EC50 [1]: 52.5 nM
SMILES: C=CC(C)(C)C(OC(=O)CC(C)C)c1cc(OC)c2c(c1OC)/C(=N/O)C=C/C2=N\O (centres undefined)

EC50 [1]: 776 nM
SMILES: C=CC(C)(C)C(OCCCCCO)c1cc(OC)c2c(c1OC)/C(=N/O)C=C/C2=N\O (centres undefined)

EC50 [1]: 60 nM
SMILES: C=CC(C)(C)C(OC(=O)c1cncc(F)c1)c1cc(OC)c2c(c1OC)/C(=N/O)C=C/C2=N\O (centres undefined)

EC50 [1]: 81.7 nM
SMILES: C=CC(C)(C)C(OC(=O)c1ccc(C)cc1)c1cc(OC)c2c(c1OC)/C(=N/O)C=C/C2=N\O (centres undefined)

EC50 [1]: 101 nM
SMILES: C=CC(C)(C)C(OC(=O)c1cccnc1Br)c1cc(OC)c2c(c1OC)/C(=N/O)C=C/C2=N\O (centres undefined)

EC50 [1]: > 10000 nM
SMILES: C=CC(C)(C)C(O)c1cc(OC)c2c(c1OC)/C(=N/O)C=C/C2=N\O (centres undefined)

EC50 [2]: 0.405 nM
EC50 [3]: 0.155 nM
SMILES: CCCC[C@H](NC(=O)[C@H](Cc1ccccc1)NC(=O)[C@H](Cc1c[nH]cn1)NC(=O)CNC(=O)[C@@H](NC(=O)[C@H](C)NC(=O)[C@H](Cc1c[nH]c2ccccc12)NC(=O)[C@H](CCC(N)=O)NC(=O)[C@H](N)Cc1ccccc1)C(C)C)C(N)=O

EC50 [4]: 624 nM
EC50 [5]: 2380 nM
EC50 [6]: 780 nM
EC50 [1]: 3400 nM
SMILES: COc1cc(C(O)CC=C(C)C)c(OC)c2c1/C(=N/O)C=C/C2=N\O (centres undefined)

EC50 [1]: 226 nM
SMILES: C=CC(C)(C)C(OCCCCO)c1cc(OC)c2c(c1OC)/C(=N/O)C=C/C2=N\O (centres undefined)

EC50 [8]: 6.11 nM
EC50 [9]: 149 nM
pKa [11]: > 10.2
concentration at 8 h [15]: < 0.05 ng/mL
EC50 [4]: 54.7 nM
EC50 [18]: 0.44 nM
EC50 [5]: 10.9 nM
EC50 [6]: 67 nM
EC50 [1]: 3.78 nM
Activity [20]: inactive
SMILES: C=CC(C)(C)C(OC(=O)c1ccco1)c1cc(OC)c2c(c1OC)/C(=N/O)C=C/C2=N\O (centres undefined)
Activity [7]: inactive
Activity [10]: Active
Activity [12]: inactive
Activity [13]: Active
Activity [14]: Active
Activity [16]: Active
Activity [17]: Active
Activity [19]: Active
Activity [21]: Dose-Dependent Effect
Activity [22]: Active

EC50 [1]: 822 nM
SMILES: COc1cc(C(CC=C(C)C)OC(=O)CC(C)C)c(OC)c2c1/C(=N/O)C=C/C2=N\O (centres undefined)

EC50 [1]: > 1000 nM
SMILES: C=CC(C)(C)C(OC(C)=O)c1cc(OC)c2c(c1OC)/C(=N/O)C=C/C2=N\O (centres undefined)

EC50 [1]: 135 nM
SMILES: C=CC(C)(C)C(OC(=O)C1CCCO1)c1cc(OC)c2c(c1OC)/C(=N/O)C=C/C2=N\O (centres undefined)

EC50 [1]: 277 nM
SMILES: C=CC(C)(C)C(OC(=O)c1ccncc1)c1cc(OC)c2c(c1OC)/C(=N/O)C=C/C2=N\O (centres undefined)

EC50 [1]: 520 nM
SMILES: COc1cc(C(CC=C(C)C)OCCC(C)C)c(OC)c2c1/C(=N/O)C=C/C2=N\O (centres undefined)

EC50 [4]: 0.421 nM
EC50 [18]: 13.5 nM
EC50 [5]: 0.293 nM
EC50 [6]: 2.99 nM
EC50 [1]: 0.211 nM
SMILES: O[C@@](Cc1nc(CC2(C(F)(F)F)CC2)c[nH]1)(c1ccc(-n2cccn2)cc1)C(F)(F)F

EC50 [1]: > 10000 nM
SMILES: C=CC(C)(C)C(OCCCO)c1cc(OC)c2c(c1OC)/C(=N/O)C=C/C2=N\O (centres undefined)

EC50 [1]: 14.7 nM
SMILES: C=CC(C)(C)C(OC(=O)c1ccccn1)c1cc(OC)c2c(c1OC)/C(=N/O)C=C/C2=N\O (centres undefined)

EC50 [1]: 4.79 nM
SMILES: C=CC(C)(C)C(OC(=O)c1ccccc1)c1cc(OC)c2c(c1OC)/C(=N/O)C=C/C2=N\O (centres undefined)

EC50 [1]: > 10000 nM
SMILES: COc1cc(C(CC=C(C)C)OCCC(C)C)c(OC)c2c1/C(=N/OC(=O)c1ccccc1)C=C/C2=N\OC(=O)c1ccccc1 (centres undefined)

EC50 [1]: 15.7 nM
SMILES: C=CC(C)(C)C(OC(=O)c1cccnc1)c1cc(OC)c2c(c1OC)/C(=N/O)C=C/C2=N\O (centres undefined)

EC50 [1]: 311 nM
SMILES: C=CC(C)(C)C(OC(=O)c1ccc(C=O)cc1)c1cc(OC)c2c(c1OC)/C(=N/O)C=C/C2=N\O (centres undefined)
